# Experimental data from patent US12408664B2 (priority 2018, dated 2025).
# Entries after “also recorded” stand apart in the source; their conditions may differ. Like-named read-outs stand apart in the source and are kept apart here.
# Legend:
# G. graminis [1] = assay: Plug transfer to PDA plates without calcium propionate (fungistatic or fungicidal); format: cell-based, Gaeumannomyces graminis
# G. graminis [2] = assay: Growth on PDA with calcium propionate fully integrated into the agarose; format: cell-based, Gaeumannomyces graminis
# Protocol: (§1) In contrast to the zone of inhibition assays described in Examples 1-3, for this experiment, PDA with calcium propionate fully integrated into the agarose was prepared. Thus, inoculants were grown on plates in which calcium propionate was incorporated at a uniform concentration throughout the plate, rather than the zones of concentration established by simple diffusion in the zone of inhibition assays. The PDA plates were amended with 5, 7.5, 10, or 12% (w/v) calcium propionate. Growth diameter was recorded for 15 days post inoculation. The data shown in Table 3 represent the results of single plate tests.
# M. poae [3] = format: cell-based, Magnaporthe poae; details: MEB with 1, 2, 5 and 10% (w/v) calcium propionate; five days
# S. homoeocarpa [4] = assay: Disrupted well-established culture transferred to amended MEB; format: cell-based, Scerotinia homoeocarpa; details: MEB with 1%, 2%, 5% or 10% (w/v) calcium propionate; five days
# Source text: To examine the effect of calcium propionate on well-established cultures of S. homoeocarpa and M. poae, MEB was inoculated with agarose plugs as previously described. Cultures were allowed to grow for 10 days to establish a robust hyphal mat. After 10 days, hyphal mats were disrupted by pipetting to break up mycelium (disrupted culture). One milliliter of disrupted culture was transferred to MEB amended with 1%, 2%, 5%, or 10% (w/v) calcium propionate. MEB without calcium propionate was used as a control. Cultures were allowed to grow for five days following inoculation with disrupted mycelium.
# dollar spot = assay: Golf Course 2: infected live turfgrass, visual detection of dollar spot; format: in vivo, Scerotinia homoeocarpa; details: 3-4 grams per square meter every 10 days, 5% (w/v) solution sprayed; 10 days following initial application
# Protocol: (§2) Calcium propionate was dissolved in water to form a 5% (w/v) solution. […] The turfgrass was comprised primarily of Agrostis capillaris. The calcium propionate 5% (w/v) solution was sprayed onto the turfgrass at a concentration of 3-4 grams per square meter every 10 days.
# S. homoeocarpa [5] = assay: Established liquid cultures, two days calcium propionate then washout; format: cell-based, Scerotinia homoeocarpa
# Protocol: (§3) To further examine the impact of calcium propionate on established liquid cultures, MEB was inoculated by plug transfer and cultures were allowed to grow for one to six days. Following this, calcium propionate was added to active cultures to a final concentration of 1%, 2%, or 5% (w/v); control cultures had no calcium propionate. Calcium propionate was then added to established one to six day old cultures and cultures were allowed to grow in the presence of calcium propionate for two days, after which, calcium propionate was washed out and cultures were returned to MEB only. Growth following calcium propionate washout was recorded over 14 days.
# F. oxysporum = assay: Fungal plugs on YPA or PDA amended with CaP; format: cell-based, Fusarium oxysporum; details: seven days, data not shown
# Protocol: Cultures of F. oxysporum were grown on PDA medium until luxuriant. To test the effect of calcium propionate (CaP), fungal plugs were transferred to YPA or PDA amended with CaP and growth was monitored for seven days. YPA plates were amended with 1%, 4%, or 15% CaP.
# R. solani = assay: Established liquid cultures, two days calcium propionate then washout; format: cell-based, Rhizoctonia solani
# Protocol: as §3
# M. poae [6] = format: cell-based, Magnaporthe poae
# turfgrass [7] = assay: Golf Course 2: appearance of treated turfgrass; format: in vivo, Agrostis capillaris; details: 3-4 grams per square meter every 10 days; 10 days following initial application
# Protocol: as §2
# turfgrass [8] = assay: Golf Course 1: appearance of treated turfgrass; format: in vivo, Festuca rubra; details: after 10 days
# Protocol: Calcium propionate was dissolved in water to form a 5% (w/v) solution. […] Zone 1 was left untreated, Zone 2 was treated with 2.5 grams calcium propionate per square meter, Zone 3 was treated with 5 grams of calcium propionate per square meter, and Zone 4 was treated with 10 grams of calcium propionate per square meter. The turfgrass was comprised primarily of Festuca rubra. The calcium propionate 5% (w/v) solution was sprayed onto the turfgrass.
# The four zones were visually inspected for dollar spot after 10 days. […] In contrast, dollar spot could, still be visually detected in untreated Zone 1.
# S. homoeocarpa [9] = assay: Growth on PDA with calcium propionate fully integrated into the agarose; format: cell-based, Scerotinia homoeocarpa; details: for Growth, S. homeocarpa: single plate
# Protocol: as §1
# [10] = any of the concentrations tested (5, 7.5, 10, 12% w/v), 15 days
# [11] = 1%, 2% or 5% (w/v), established one to six day old cultures, two days
# [12] = all concentrations tested (1-5% w/v)
compound,measurement,setting,value
CCC(=O)[O-].CCC(=O)[O-].[Ca+2] [calcium propionate],"fungistatic or fungicidal effect, G. graminis",G. graminis [1]; 5% (w/v) calcium propionate,fungicidal effect
same,"growth on unamended PDA after plug transfer, G. graminis","G. graminis [1]; plugs initially grown on 5, 7.5, 10 or 12% (w/v) calcium propionate, observed 14 days",No growth was seen
same,"Growth, G. graminis","G. graminis [2]; PDA with 5% (w/v) calcium propionate, day 4, single plate",0 cm
same,"Growth, G. graminis","G. graminis [2]; PDA with 5% (w/v) calcium propionate, day 5, single plate",0 cm
same,"Growth, G. graminis","G. graminis [2]; PDA with 5% (w/v) calcium propionate, day 8, single plate",0 cm
same,"Growth, G. graminis","G. graminis [2]; PDA with 5% (w/v) calcium propionate, day 11, single plate",0 cm
same,"Growth, G. graminis","G. graminis [2]; PDA with 5% (w/v) calcium propionate, day 15, single plate",0 cm
same,"Growth, G. graminis","G. graminis [2]; PDA with 7.5% (w/v) calcium propionate, day 4, single plate",0 cm
same,"Growth, G. graminis","G. graminis [2]; PDA with 7.5% (w/v) calcium propionate, day 5, single plate",0 cm
same,"Growth, G. graminis","G. graminis [2]; PDA with 7.5% (w/v) calcium propionate, day 8, single plate",0 cm
same,"Growth, G. graminis","G. graminis [2]; PDA with 7.5% (w/v) calcium propionate, day 11, single plate",0 cm
same,"Growth, G. graminis","G. graminis [2]; PDA with 7.5% (w/v) calcium propionate, day 15, single plate",0 cm
same,"Growth, G. graminis","G. graminis [2]; PDA with 10% (w/v) calcium propionate, day 4, single plate",0 cm
same,"Growth, G. graminis","G. graminis [2]; PDA with 10% (w/v) calcium propionate, day 5, single plate",0 cm
same,"Growth, G. graminis","G. graminis [2]; PDA with 10% (w/v) calcium propionate, day 8, single plate",0 cm
same,"Growth, G. graminis","G. graminis [2]; PDA with 10% (w/v) calcium propionate, day 11, single plate",0 cm
same,"Growth, G. graminis","G. graminis [2]; PDA with 10% (w/v) calcium propionate, day 15, single plate",0 cm
same,"Growth, G. graminis","G. graminis [2]; PDA with 12% (w/v) calcium propionate, day 4, single plate",0 cm
same,"Growth, G. graminis","G. graminis [2]; PDA with 12% (w/v) calcium propionate, day 5, single plate",0 cm
same,"Growth, G. graminis","G. graminis [2]; PDA with 12% (w/v) calcium propionate, day 8, single plate",0 cm
same,"Growth, G. graminis","G. graminis [2]; PDA with 12% (w/v) calcium propionate, day 11, single plate",0 cm
same,"Growth, G. graminis","G. graminis [2]; PDA with 12% (w/v) calcium propionate, day 15, single plate",0 cm
same,"Growth, G. graminis",G. graminis [2]; [10],no growth
same,"growth in liquid culture, M. poae",M. poae [3],no growth was observed
same,"growth of disrupted culture, S. homoeocarpa",S. homoeocarpa [4],No growth was observed
same,visual detection of dollar spot infection,dollar spot,could no longer be visually detected
same,"growth recovery over 14 days after removal, S. homoeocarpa",S. homoeocarpa [5]; 1% or 2% (w/v) calcium propionate,varying degrees of growth recovery
same,"growth while calcium propionate was present, S. homoeocarpa",S. homoeocarpa [5]; [11],growth was inhibited
same,"growth recovery over 14 days after removal, S. homoeocarpa",S. homoeocarpa [5]; 5% (w/v) treatment,no growth recovery was observed
same,"growth three days following removal of calcium propionate, S. homoeocarpa",S. homoeocarpa [5]; [12],continued growth inhibition
same,F. oxysporum growth,F. oxysporum; YPA amended with 1% CaP,not impacted
same,F. oxysporum growth,F. oxysporum; YPA amended with 4% or 15% CaP,unable to grow
same,"growth while calcium propionate was present, R. solani",R. solani; [11],growth was inhibited
same,"growth inhibition over two weeks after removal, R. solani",R. solani; [12],some minor growth inhibition
same,"growth three days following removal of calcium propionate, R. solani",R. solani; concentrations examined (1-5% w/v),robust growth was observed
same,"growth inhibition in repeated experiments, M. poae","M. poae [6]; 2-4% (w/v) calcium propionate, repeat, data not shown",mixed
same,"Growth, M. Poae","M. poae [6]; 5-12% (w/v) calcium propionate, day 2, average ± SD of three plates",1.1 ± 0.1 cm
same,"Growth, M. Poae","M. poae [6]; 5-12% (w/v) calcium propionate, day 3, average ± SD of three plates",1.5 ± 0.2 cm
same,"Growth, M. Poae","M. poae [6]; 5-12% (w/v) calcium propionate, day 6, average ± SD of three plates",2.1 ± 0.4 cm
same,"Growth, M. Poae","M. poae [6]; 5-12% (w/v) calcium propionate, day 7, average ± SD of three plates",3.1±0.4 cm
same,"Growth, M. Poae","M. poae [6]; 5-12% (w/v) calcium propionate, day 10, average ± SD of three plates",5.8 ± 0.7 cm
same,"Growth, M. Poae","M. poae [6]; 5-12% (w/v) calcium propionate, day 13, average ± SD of three plates",8.2 ± 0.5 cm
same,"growth inhibition, M. poae","M. poae [6]; wells 0.1-0.5% (w/v) calcium propionate, observed over seven days",no growth inhibition was observed
same,"Growth, M. Poae","M. poae [6]; wells 0.5-4% (w/v) calcium propionate, day 2, average ± SD of two plates",1.5 ± 0.2 cm
same,"Growth, M. Poae","M. poae [6]; wells 0.5-4% (w/v) calcium propionate, day 5, average ± SD of two plates",4.3 ± 0.1 cm
same,"Growth, M. Poae","M. poae [6]; wells 0.5-4% (w/v) calcium propionate, day 7, average ± SD of two plates",6.9 ± 0.1 cm
same,"growth inhibition, M. poae","M. poae [6]; wells 0.5-4% (w/v) calcium propionate, seven day growth period",clear growth inhibition; also recorded: inhibited to a similar degree
same,appearance of the turfgrass,turfgrass [7],appeared healthy
same,appearance of the turfgrass,turfgrass [8]; Zone 2: 2.5 grams per square meter,appeared healthy
same,appearance of the turfgrass,turfgrass [8]; Zone 3: 5 grams per square meter,appeared healthy
same,effect on the turfgrass,turfgrass [8]; Zone 4: 10 grams per square meter,burning effect
same,"Growth, S. homeocarpa","S. homoeocarpa [9]; PDA with 5% (w/v) calcium propionate, day 4",0 cm
same,"Growth, S. homeocarpa","S. homoeocarpa [9]; PDA with 5% (w/v) calcium propionate, day 5",0 cm
same,"Growth, S. homeocarpa","S. homoeocarpa [9]; PDA with 5% (w/v) calcium propionate, day 8",0 cm
same,"Growth, S. homeocarpa","S. homoeocarpa [9]; PDA with 5% (w/v) calcium propionate, day 11",0 cm
same,"Growth, S. homeocarpa","S. homoeocarpa [9]; PDA with 5% (w/v) calcium propionate, day 15",0 cm
same,"Growth, S. homeocarpa","S. homoeocarpa [9]; PDA with 7.5% (w/v) calcium propionate, day 4",0 cm
same,"Growth, S. homeocarpa","S. homoeocarpa [9]; PDA with 7.5% (w/v) calcium propionate, day 5",0 cm
same,"Growth, S. homeocarpa","S. homoeocarpa [9]; PDA with 7.5% (w/v) calcium propionate, day 8",0 cm
same,"Growth, S. homeocarpa","S. homoeocarpa [9]; PDA with 7.5% (w/v) calcium propionate, day 11",0 cm
same,"Growth, S. homeocarpa","S. homoeocarpa [9]; PDA with 7.5% (w/v) calcium propionate, day 15",0 cm
same,"Growth, S. homeocarpa","S. homoeocarpa [9]; PDA with 10% (w/v) calcium propionate, day 4",0 cm
same,"Growth, S. homeocarpa","S. homoeocarpa [9]; PDA with 10% (w/v) calcium propionate, day 5",0 cm
same,"Growth, S. homeocarpa","S. homoeocarpa [9]; PDA with 10% (w/v) calcium propionate, day 8",0 cm
same,"Growth, S. homeocarpa","S. homoeocarpa [9]; PDA with 10% (w/v) calcium propionate, day 11",0 cm
same,"Growth, S. homeocarpa","S. homoeocarpa [9]; PDA with 10% (w/v) calcium propionate, day 15",0 cm
same,"Growth, S. homeocarpa","S. homoeocarpa [9]; PDA with 12% (w/v) calcium propionate, day 4",0 cm
same,"Growth, S. homeocarpa","S. homoeocarpa [9]; PDA with 12% (w/v) calcium propionate, day 5",0 cm
same,"Growth, S. homeocarpa","S. homoeocarpa [9]; PDA with 12% (w/v) calcium propionate, day 8",0 cm
same,"Growth, S. homeocarpa","S. homoeocarpa [9]; PDA with 12% (w/v) calcium propionate, day 11",0 cm
same,"Growth, S. homeocarpa","S. homoeocarpa [9]; PDA with 12% (w/v) calcium propionate, day 15",0 cm
same,"growth, S. homoeocarpa",S. homoeocarpa [9]; [10],no growth
